Each structure is given as a SMILES string.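 Five concentrations, 48 hours, 96-well plates. TGI marks complete inhibition of growth.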

Among the test systems are NCI/ADR-RES ovarian; KM12 colon; OVCAR-8 ovarian; OVCAR-5 ovarian; UACC-257 melanoma; CAKI-1 renal; OVCAR-3 ovarian; SNB-19 CNS; M14 melanoma; A498 renal; HCC-2998 colon; HCT-15 colon; U251 CNS; ACHN renal; NCI-H226 lung; RPMI-8226 leukemia; MCF7 breast; OVCAR-4 ovarian; SF-268 CNS; SW-620 colon.
Holding throughout (test): DTP human tumour cell line panel, 48 h

One may read the TGI as the concentration at which net growth stops. A lower TGI goes with greater sensitivity of the cells. Regarding `N#Cc1c(O)cc(=O)n2c1[nH]c1ccccc12`, the TGI with NCI/ADR-RES ovarian, in the experiment with KM12 colon, in the experiment with OVCAR-8 ovarian, in the experiment on OVCAR-5 ovarian, with UACC-257 melanoma and with CAKI-1 renal was over 100 µM each time. Besides, the TGI in the experiment on OVCAR-3 ovarian, with SNB-19 CNS, in the experiment on M14 melanoma, in the experiment on A498 renal, in the experiment with HCC-2998 colon and in the experiment with HCT-15 colon was over 100 µM each time. In addition, the TGI with U251 CNS, in the experiment with ACHN renal, in the experiment with NCI-H226 lung, with RPMI-8226 leukemia, with MCF7 breast and with OVCAR-4 ovarian was over 100 µM each time. The TGI with SF-268 CNS and in the experiment with SW-620 colon was over 100 µM each time.
`Oc1ccccc1C1=NOC(c2ccc(C(F)(F)F)cc2)C1` (stereo not given): the TGI with NCI/ADR-RES ovarian, with KM12 colon, in the experiment on OVCAR-8 ovarian, in the experiment with OVCAR-5 ovarian, in the experiment on UACC-257 melanoma and with CAKI-1 renal was over 50 µM each time. Further, the TGI in the experiment on OVCAR-3 ovarian, in the experiment on SNB-19 CNS, in the experiment with M14 melanoma, with A498 renal, in the experiment on HCC-2998 colon and in the experiment on HCT-15 colon was over 50 µM in each case. In addition, the TGI in the experiment with U251 CNS, in the experiment on ACHN renal, with NCI-H226 lung, in the experiment with RPMI-8226 leukemia, in the experiment on MCF7 breast and with OVCAR-4 ovarian was over 50 µM in each case. Also, the TGI in the experiment with SF-268 CNS and in the experiment with SW-620 colon was over 50 µM in each case.
Turning to `CN(C)CC1CCCCCCCCCC(CN(C)C)C1=O` (stereo not given), the TGI is 52.1 µM with NCI/ADR-RES ovarian; over 39.4 µM in the experiment with KM12 colon; over 54.8 µM in the experiment on OVCAR-8 ovarian; over 63.6 µM in the experiment with OVCAR-5 ovarian; over 48.1 µM in the experiment on UACC-257 melanoma; over 50 µM in the experiment on CAKI-1 renal. Moreover, the TGI with OVCAR-3 ovarian is over 40.1 µM; in the experiment with SNB-19 CNS, over 55.6 µM; in the experiment on M14 melanoma, over 49.1 µM; with A498 renal, over 46.2 µM; with HCC-2998 colon, over 100 µM; with HCT-15 colon, over 61.2 µM. The TGI in the experiment with U251 CNS is over 54.5 µM; in the experiment on ACHN renal it was over 46.3 µM; with NCI-H226 lung it was over 60.3 µM; in the experiment with RPMI-8226 leukemia it was over 100 µM; in the experiment on MCF7 breast, 24.3 µM; in the experiment with OVCAR-4 ovarian, over 41.2 µM. In addition, the values for the total growth inhibition concentration (TGI) in the experiment on SF-268 CNS and in the experiment with SW-620 colon were over 53.9 µM and over 45.5 µM, respectively.
As for `COC(=O)[C@]1(c2cc3ccccc3[nH]2)CC2CN(CC(=O)N(C)OC)C1CC2(OC)OC` (stereo not given in full), the TGI in the experiment on NCI/ADR-RES ovarian was over 100 µM; in the experiment with KM12 colon, over 100 µM; with OVCAR-8 ovarian it was over 100 µM; with OVCAR-5 ovarian, over 100 µM; in the experiment on UACC-257 melanoma, over 100 µM; in the experiment on CAKI-1 renal, 56 µM. The TGI in the experiment with OVCAR-3 ovarian, in the experiment with SNB-19 CNS, with M14 melanoma, in the experiment on A498 renal, with HCC-2998 colon and with HCT-15 colon was over 100 µM throughout. Further, the TGI was 30.7 µM with U251 CNS; over 100 µM in the experiment on ACHN renal; over 100 µM with NCI-H226 lung; 39.6 µM in the experiment on RPMI-8226 leukemia; over 100 µM with MCF7 breast; over 100 µM in the experiment on OVCAR-4 ovarian. Besides, the TGI in the experiment with SF-268 CNS and with SW-620 colon was over 100 µM each time.
On to `O=C(NCCN1CCCCC1)c1ccc(I)cc1`, for which the TGI in the experiment with NCI/ADR-RES ovarian, in the experiment with KM12 colon, with OVCAR-8 ovarian, with OVCAR-5 ovarian, with UACC-257 melanoma and with CAKI-1 renal was over 100 µM in each case. The TGI in the experiment on OVCAR-3 ovarian was over 100 µM; in the experiment with SNB-19 CNS it was over 100 µM; in the experiment on M14 melanoma, over 100 µM; in the experiment with A498 renal, 69.3 µM; in the experiment with HCC-2998 colon, over 100 µM; with HCT-15 colon, over 100 µM. Moreover, the TGI with U251 CNS, in the experiment on ACHN renal, in the experiment on NCI-H226 lung, with RPMI-8226 leukemia, with MCF7 breast and in the experiment on OVCAR-4 ovarian was over 100 µM each time. Further, the concentration for total growth inhibition (TGI) in the experiment on SF-268 CNS and with SW-620 colon was over 100 µM each time.
On to `N#Cc1c(O)c(N=Nc2ccc(Cl)cc2)c(=O)n2c1[nH]c1ccccc12`, for which the TGI in the experiment on NCI/ADR-RES ovarian, with KM12 colon, with OVCAR-8 ovarian, in the experiment on OVCAR-5 ovarian, in the experiment on UACC-257 melanoma and in the experiment on CAKI-1 renal was over 100 µM each time. In addition, the TGI in the experiment with OVCAR-3 ovarian was 80.8 µM; with SNB-19 CNS it was over 100 µM; with M14 melanoma, over 100 µM; in the experiment with A498 renal, over 100 µM; in the experiment with HCC-2998 colon, over 100 µM; in the experiment on HCT-15 colon, over 100 µM. The TGI is over 100 µM in the experiment with U251 CNS; over 100 µM in the experiment with ACHN renal; over 100 µM in the experiment on NCI-H226 lung; 85.5 µM in the experiment with RPMI-8226 leukemia; over 100 µM in the experiment with MCF7 breast; over 100 µM in the experiment on OVCAR-4 ovarian. Besides, the TGI in the experiment on SF-268 CNS and in the experiment with SW-620 colon was over 100 µM in each case.
As to `COC(=O)C1=C(C(=O)OC)SC(=C2S[C@@H]3[C@@H]4C[C@H]([C@@H]3S2)[C@H]2C(=O)OC(=O)[C@@H]42)S1`, the TGI in the experiment on NCI/ADR-RES ovarian, in the experiment on KM12 colon, in the experiment on OVCAR-8 ovarian, with OVCAR-5 ovarian, in the experiment with UACC-257 melanoma and with CAKI-1 renal was over 100 µM throughout. For the same compound, the TGI in the experiment with OVCAR-3 ovarian, with SNB-19 CNS, with M14 melanoma, with A498 renal, in the experiment on HCC-2998 colon and in the experiment with HCT-15 colon was over 100 µM throughout. For the same compound, the TGI in the experiment with U251 CNS, in the experiment on ACHN renal, in the experiment on NCI-H226 lung, in the experiment with RPMI-8226 leukemia, with MCF7 breast and with OVCAR-4 ovarian was over 100 µM each time. Moreover, the TGI in the experiment with SF-268 CNS and in the experiment on SW-620 colon was over 100 µM in each case.
